According to ChEMBL document CHEMBL4406824, “Phenolic N-monosubstituted carbamates: Antitubercular and toxicity evaluation of multi-targeting compounds” (Eur J Med Chem, 2019):
In brackets after ≈: the same amount, converted by molar mass.

Experiments:
[1] = system: Mycobacterium tuberculosis H37Rv; experiment: Inhibition of recombinant Mycobacterium tuberculosis H37Rv ICL1 expressed in Escherichia coli BL21 (DE3) cells at 10 uM using (+)-potassium Ds-threo-isocitrate as substrate by glyoxylate phenyl hydrazone formation assay relative to control
[2] = system: Mycobacterium tuberculosis; experiment: Antimycobacterial activity against Mycobacterium tuberculosis H37Ra ITM-M006710 after 48 hr by resazurin dye based microdilution method; assay type: functional; settings: H37Ra ITM-M006710, 48 h
[3] = system: Mycolicibacterium smegmatis; experiment: Antimycobacterial activity against Mycobacterium smegmatis DSM 43465 after 120 hr by resazurin dye based microdilution method; assay type: functional; settings: DSM 43465, 120 h
Mycolicibacterium aurum = experiment: Antimycobacterial activity against Mycobacterium aurum DSM 43999 after 72 hr by resazurin dye based microdilution method; assay type: functional; settings: DSM 43999, 72 h
Mycobacterium avium [4] = experiment: Antimycobacterial activity against Mycobacterium avium 330/88 after 14 days; assay type: functional; settings: 330/88, 336 h
Mycobacterium avium [5] = experiment: Antimycobacterial activity against Mycobacterium avium 330/88 after 21 days; assay type: functional; settings: 330/88, 504 h
Mycobacterium kansasii [6] = experiment: Antimycobacterial activity against Mycobacterium kansasii 6509/96 after 21 days; assay type: functional; settings: 6509/96, 504 h
Mycobacterium kansasii [7] = experiment: Antimycobacterial activity against Mycobacterium kansasii 6509/96 after 7 days; assay type: functional; settings: 6509/96, 168 h
[8] = system: Mycobacterium tuberculosis; assay type: functional; settings: H37Rv 331/88, 504 h
Mycobacterium kansasii [9] = experiment: Antimycobacterial activity against Mycobacterium kansasii 235/80 after 7 days; assay type: functional; settings: 235/80, 168 h
[10] = system: Mycobacterium tuberculosis; assay type: functional; settings: H37Rv 331/88, 336 h
in vitro = settings: human, HepG2 cells
Description: Selectivity index, ratio of IC50 for human HepG2 cells to MIC for antimycobacterial activity against Mycobacterium tuberculosis H37Rv

Mycobacterium kansasii [11] = experiment: Antimycobacterial activity against Mycobacterium kansasii 235/80 after 21 days; assay type: functional; settings: 235/80, 504 h
Mycobacterium kansasii [12] = experiment: Antimycobacterial activity against Mycobacterium kansasii 6509/96 after 14 days; assay type: functional; settings: 6509/96, 336 h
Mycobacterium kansasii [13] = experiment: Antimycobacterial activity against Mycobacterium kansasii 235/80 after 14 days; assay type: functional; settings: 235/80, 336 h
HepG2 [14] = experiment: Cytostatic activity against human HepG2 cells preincubated for overnight in serum free medium followed by compound wash out and further incubated for 72 hrs in presence of serum by MTT assay; assay type: ADME, cell-based
HepG2 [15] = experiment: Cytotoxicity against human HepG2 cells assessed as reduction in cell viability after overnight incubation by MTT assay; assay type: cell-based
Mycobacterium kansasii [16] = experiment: Potency index, ratio of p-aminosalicylic acid MIC to compound MIC for antimycobacterial activity against Mycobacterium kansasii 6509/96; assay type: functional
Mycobacterium kansasii [17] = experiment: Potency index, ratio of p-aminosalicylic acid MIC to compound MIC for antimycobacterial activity against Mycobacterium kansasii 235/80; assay type: functional
[18] = system: Mycobacterium tuberculosis; assay type: functional, H37Rv 331/88; set-up: reference not given here

SMILES	inhibition [1] [%]	MIC [2]	MIC [3]	MIC (Mycolicibacterium aurum)	MIC (Mycobacterium avium [4]) [µM]	MIC (Mycobacterium avium [5]) [µM]	MIC (Mycobacterium kansasii [6]) [µM]	MIC (Mycobacterium kansasii [7]) [µM]	MIC [8] [µM]	MIC (Mycobacterium kansasii [9]) [µM]	MIC [10] [µM]	selectivity ratio (in vitro)	MIC (Mycobacterium kansasii [11]) [µM]	MIC (Mycobacterium kansasii [12]) [µM]	MIC (Mycobacterium kansasii [13]) [µM]	IC50 (HepG2 [14]) [µM]	IC50 (HepG2 [15]) [µM]	Ratio (Mycobacterium kansasii [16])	Ratio (Mycobacterium kansasii [17])	Ratio [18]
O=C(O)CC[N+](=O)[O-]	25	–	–	–	–	–	–	–	–	–	–	–	–	–	–	–	–	–	–	–
CC[C@@H](CO)NCCN[C@@H](CC)CO [ETHAMBUTOL]	–	1.8 µM	1.8 µM	0.9 µM	–	–	–	–	–	–	–	–	–	–	–	–	–	–	–	–
Nc1ccc(C(=O)O)c(O)c1 [AMINOSALICYLIC ACID]	0	–	–	–	32 (≈ 4.9 µg/mL)	125 (≈ 19.1 µg/mL)	500 (≈ 76.6 µg/mL)	32 (≈ 4.9 µg/mL)	62.5 (≈ 9.57 µg/mL)	125 (≈ 19.1 µg/mL)	62.5 (≈ 9.57 µg/mL)	35.8	> 1000	125 (≈ 19.1 µg/mL)	1000 (≈ 153 µg/mL)	–	–	–	–	–
O=C(NC12CC3CC(CC(C3)C1)C2)Oc1ccc(Cl)cc1	13	62.5 µg/mL	≥ 125 µg/mL	≥ 125 µg/mL	125 (≈ 38.2 µg/mL)	250 (≈ 76.5 µg/mL)	125 (≈ 38.2 µg/mL)	125 (≈ 38.2 µg/mL)	125 (≈ 38.2 µg/mL)	125 (≈ 38.2 µg/mL)	62.5 (≈ 19.1 µg/mL)	> 1	125 (≈ 38.2 µg/mL)	125 (≈ 38.2 µg/mL)	125 (≈ 38.2 µg/mL)	> 250	> 125	–	–	–
O=C(NC12CC3CC(CC(C3)C1)C2)Oc1ccc(Cl)cc1C(=O)Nc1ccc(Cl)cc1	11	3.12 µg/mL	3.91 µg/mL	3.91 µg/mL	16 (≈ 7.35 µg/mL)	16 (≈ 7.35 µg/mL)	16 (≈ 7.35 µg/mL)	8 (≈ 3.67 µg/mL)	16 (≈ 7.35 µg/mL)	8 (≈ 3.67 µg/mL)	16 (≈ 7.35 µg/mL)	1.5	16 (≈ 7.35 µg/mL)	16 (≈ 7.35 µg/mL)	16 (≈ 7.35 µg/mL)	8.15	24	>250	>250	>125
O=C(NCc1ccccc1)Oc1ccccc1C(=O)Nc1ccccc1	8	15.6 µg/mL	31.2 µg/mL	31.2 µg/mL	125 (≈ 43.3 µg/mL)	125 (≈ 43.3 µg/mL)	250 (≈ 86.6 µg/mL)	125 (≈ 43.3 µg/mL)	125 (≈ 43.3 µg/mL)	125 (≈ 43.3 µg/mL)	125 (≈ 43.3 µg/mL)	> 1	250 (≈ 86.6 µg/mL)	250 (≈ 86.6 µg/mL)	250 (≈ 86.6 µg/mL)	54.3	> 125	–	–	–
O=C(Nc1ccccc1)Oc1ccc(Cl)cc1C(=O)Nc1ccc(F)cc1	16	3.12 µg/mL	1.98 µg/mL	1.98 µg/mL	32 (≈ 12.3 µg/mL)	32 (≈ 12.3 µg/mL)	16 (≈ 6.16 µg/mL)	8 (≈ 3.08 µg/mL)	8 (≈ 3.08 µg/mL)	8 (≈ 3.08 µg/mL)	4 (≈ 1.54 µg/mL)	> 2.5	32 (≈ 12.3 µg/mL)	16 (≈ 6.16 µg/mL)	16 (≈ 6.16 µg/mL)	3.25	> 20	>250	>250	>125
O=C(Nc1ccccc1)Oc1ccc(Cl)cc1	14	7.81 µg/mL	15.6 µg/mL	15.6 µg/mL	500 (≈ 124 µg/mL)	1000 (≈ 248 µg/mL)	500 (≈ 124 µg/mL)	125 (≈ 31 µg/mL)	500 (≈ 124 µg/mL)	125 (≈ 31 µg/mL)	250 (≈ 61.9 µg/mL)	> 0.3	500 (≈ 124 µg/mL)	250 (≈ 61.9 µg/mL)	250 (≈ 61.9 µg/mL)	> 125	> 125	–	–	–
O=C(NC1CCCCC1)Oc1ccc(Cl)cc1C(=O)Nc1ccc(F)cc1	18	3.12 µg/mL	3.91 µg/mL	1.56 µg/mL	32 (≈ 12.5 µg/mL)	32 (≈ 12.5 µg/mL)	32 (≈ 12.5 µg/mL)	16 (≈ 6.25 µg/mL)	8 (≈ 3.13 µg/mL)	16 (≈ 6.25 µg/mL)	4 (≈ 1.56 µg/mL)	2.7 to 5.3	32 (≈ 12.5 µg/mL)	16 (≈ 6.25 µg/mL)	32 (≈ 12.5 µg/mL)	8.6	21.2	>250	>250	>125
O=C(NCc1ccccc1)Oc1ccc(Cl)cc1	14	31.2 µg/mL	152 µg/mL	125 µg/mL	500 (≈ 131 µg/mL)	500 (≈ 131 µg/mL)	500 (≈ 131 µg/mL)	125 (≈ 32.7 µg/mL)	250 (≈ 65.4 µg/mL)	125 (≈ 32.7 µg/mL)	125 (≈ 32.7 µg/mL)	> 0.5	500 (≈ 131 µg/mL)	250 (≈ 65.4 µg/mL)	250 (≈ 65.4 µg/mL)	> 125	> 125	–	–	–
O=C(NCc1ccccc1)Oc1ccc(Cl)cc1C(=O)Nc1ccc(Br)cc1	17	3.91 µg/mL	1.98 µg/mL	1.98 µg/mL	8 (≈ 3.68 µg/mL)	16 (≈ 7.36 µg/mL)	8 (≈ 3.68 µg/mL)	4 (≈ 1.84 µg/mL)	16 (≈ 7.36 µg/mL)	4 (≈ 1.84 µg/mL)	16 (≈ 7.36 µg/mL)	> 3.1	8 (≈ 3.68 µg/mL)	8 (≈ 3.68 µg/mL)	8 (≈ 3.68 µg/mL)	1.65	> 50	>250	>250	>125
O=C(NC1CCCCC1)Oc1ccccc1C(=O)Nc1ccccc1	8	15.6 µg/mL	15.6 µg/mL	15.6 µg/mL	125 (≈ 42.3 µg/mL)	125 (≈ 42.3 µg/mL)	250 (≈ 84.6 µg/mL)	125 (≈ 42.3 µg/mL)	125 (≈ 42.3 µg/mL)	125 (≈ 42.3 µg/mL)	125 (≈ 42.3 µg/mL)	0.4	250 (≈ 84.6 µg/mL)	250 (≈ 84.6 µg/mL)	250 (≈ 84.6 µg/mL)	51.5	49	–	–	–
O=C(NC12CC3CC(CC(C3)C1)C2)Oc1ccccc1C(=O)Nc1ccccc1	9	250 µg/mL	250 µg/mL	≥ 250 µg/mL	125 (≈ 48.8 µg/mL)	125 (≈ 48.8 µg/mL)	250 (≈ 97.6 µg/mL)	125 (≈ 48.8 µg/mL)	125 (≈ 48.8 µg/mL)	125 (≈ 48.8 µg/mL)	125 (≈ 48.8 µg/mL)	> 2	125 (≈ 48.8 µg/mL)	250 (≈ 97.6 µg/mL)	125 (≈ 48.8 µg/mL)	233	> 250	–	–	–
Oc1ccc(Cl)cc1 [PARACHLOROPHENOL]	–	–	–	–	> 250	> 250	> 250	125 (≈ 16.1 µg/mL)	250 (≈ 32.1 µg/mL)	250 (≈ 32.1 µg/mL)	125 (≈ 16.1 µg/mL)	–	> 250	250 (≈ 32.1 µg/mL)	> 250	–	–	–	–	–
CO[C@H]1/C=C/O[C@@]2(C)Oc3c(C)c(O)c4c(O)c(c(/C=N/N5CCN(C)CC5)c(O)c4c3C2=O)NC(=O)/C(C)=C\C=C\[C@H](C)[C@H](O)[C@@H](C)[C@@H](O)[C@@H](C)[C@H](OC(C)=O)[C@@H]1C [RIFAMPIN]	–	0.0005 to 0.009 µM	12.5 to 25 µg/mL	0.47 µM	–	–	–	–	–	–	–	–	–	–	–	–	–	–	–	–
NNC(=O)c1ccncc1 [ISONIAZID]	0	0.91 to 1.82 µM	15.6 µg/mL	3.91 µg/mL	> 250	> 250	8 (≈ 1.1 µg/mL)	4 (≈ 0.549 µg/mL)	1 (≈ 0.137 µg/mL)	> 250	0.5 (≈ 0.0686 µg/mL)	> 250	> 250	8 (≈ 1.1 µg/mL)	> 250	–	> 250	–	–	–
O=C(NCCc1ccccc1)Oc1ccc(Cl)cc1	12	31.2 µg/mL	62.5 µg/mL	125 µg/mL	250 (≈ 68.9 µg/mL)	500 (≈ 138 µg/mL)	500 (≈ 138 µg/mL)	125 (≈ 34.5 µg/mL)	250 (≈ 68.9 µg/mL)	125 (≈ 34.5 µg/mL)	250 (≈ 68.9 µg/mL)	> 0.5	500 (≈ 138 µg/mL)	250 (≈ 68.9 µg/mL)	250 (≈ 68.9 µg/mL)	> 250	> 125	–	–	–
O=C(NC1CCCCC1)Oc1ccc(Cl)cc1	16	500 µg/mL	≥ 500 µg/mL	≥ 500 µg/mL	500 (≈ 127 µg/mL)	1000 (≈ 254 µg/mL)	250 (≈ 63.4 µg/mL)	125 (≈ 31.7 µg/mL)	500 (≈ 127 µg/mL)	250 (≈ 63.4 µg/mL)	500 (≈ 127 µg/mL)	> 0.3	1000 (≈ 254 µg/mL)	250 (≈ 63.4 µg/mL)	500 (≈ 127 µg/mL)	> 125	> 125	–	–	–
O=C(Nc1ccccc1)Oc1ccccc1C(=O)Nc1ccccc1	5	31.2 µg/mL	31.2 µg/mL	31.2 µg/mL	125 (≈ 41.5 µg/mL)	125 (≈ 41.5 µg/mL)	250 (≈ 83.1 µg/mL)	125 (≈ 41.5 µg/mL)	125 (≈ 41.5 µg/mL)	125 (≈ 41.5 µg/mL)	125 (≈ 41.5 µg/mL)	0.5	250 (≈ 83.1 µg/mL)	250 (≈ 83.1 µg/mL)	250 (≈ 83.1 µg/mL)	26.8	57.6	–	–	–
O=C(NCCc1ccccc1)Oc1ccccc1C(=O)Nc1ccccc1	6	15.6 µg/mL	31.2 µg/mL	31.2 µg/mL	125 (≈ 45.1 µg/mL)	125 (≈ 45.1 µg/mL)	250 (≈ 90.1 µg/mL)	125 (≈ 45.1 µg/mL)	125 (≈ 45.1 µg/mL)	125 (≈ 45.1 µg/mL)	125 (≈ 45.1 µg/mL)	> 1	250 (≈ 90.1 µg/mL)	250 (≈ 90.1 µg/mL)	250 (≈ 90.1 µg/mL)	55.6	> 125	–	–	–
